Data reported in patent publication US20100293626A1, “METHODS FOR IMPROVEMENT OF BIRTH RATES IN CANIDAE ON SOMATIC CELL NUCLEAR TRANSFER” (SEOUL NATIONAL UNIVERSITY INDUSTRY FOUNDATION, priority 2007, published 2010).

Key:
[1] = test system: reconstructed oocytes (canine cloned embryos); assay: Nuclear remodeling of reconstructed oocytes after somatic cell nuclear transfer with roscovitine-treated donor cells; assay type: cell-based, dog
Experimental: Before performing somatic cell nuclear transfer, the cells were thawed and cultured for 24 hours in a medium supplemented with 15 μM roscovitine (i.e., DMEM+10% FBS+15 μM roscovitine). Then, the cells were treated with trypsin for about 2 minutes during somatic cell nuclear transfer and collected from the monolayer.
The nuclear donor cells prepared in Example 3 were microinjected into the enucleated oocytes prepared in Example 2. The nuclear donor cells were microinjected into a perivitelline space of the enucleated oocytes in the following manner. The enucleated oocytes were treated with […] phytohemagglutinin in the medium of Table 1, and the slit of the enucleated oocytes was held with a holding pipette. Then, a transfer pipette was inserted into the slit, and the single cells isolated from fibroblasts in Example 3 were injected between the cytoplasm and zona pellucida of the enucleated oocytes by the transfer pipette.
Then, the nuclear donor cell-oocyte couplets were placed in a fusion medium (containing 0.26 M mannitol, 0.1 mM MgSO4, 0.5 mM HEPES and 0.05% BSA) and interposed between two parallel electrodes attached to a micromanipulator (Nikon-Narishige, Japan). Then, the fusion of the couplets was induced by electrical stimulation applied twice at a voltage of 4 kV/cm for 15 μs using an electro-cell fusion apparatus (NEPA GENE Co., Chiba, Japan).
After 1 hour of electrical stimulation, the fusion of the nuclear donor cells with the oocyte cytoplasm was observed under a stereomicroscope. The fused embryos were selected and cultured for 1.5-4 hours in TCM-199 (Table 2) supplemented with 10% (v/v) FBS.
The nuclear transfer embryos obtained in Example 4 were cultured in mSOF containing 10 μM ionophore (Sigma) at 39° C. for 4 minutes, thus inducing the activation of the nuclear transfer embryos. Then, the nuclear transfer embryos were washed and further cultured in mSOF (Table 3) supplemented with 1.9 mM 6-dimethylaminopurin for 4 hours.
After performing canine somatic cell nuclear transfer into the enucleated oocytes using the microinjection method, the difference in the formation and change of nuclei between a control group not treated with roscovitine and a group treated with roscovitine for 24 hours, was examined.

surrogate mothers = assay: Pregnancy rate after transfer of nuclear transfer embryos into surrogate mothers; assay type: in vivo, dog
Experimental: The nuclear transfer embryos from Example 5 were surgically transferred into the oviduct of estrus synchronized surrogate mothers. The transfer was carried out within 4 hours after the activation of the nuclear transfer embryos. […] For the transfer, the surrogate mothers were anesthetized by vascular injection with 0.1 mg/kg acepromazine and 6 mg/kg propofol, and maintained at the anesthetized state using 2% isoflurane. Operation area of the anesthetized female dogs was aseptically operated and incised on the center of the abdomen according to general laparotomy so as to expose the oviduct. The abdominal cavity was stimulated by hand to draw the ovary, the oviduct and the uterus to the incision. The mesovarium of the drawn ovary was carefully handled to recognize the opening of the oviduct, and a 3.5 F Tom cat catheter (Sherwood, St. Louis, Mo.) equipped with a 1.0 ml tuberculin syringe (Latex free, Becton Dickinson & CO. Franklin lakes, N.J. 07417) was inserted into the oviduct to secure a sufficient space in the front of the catheter. Then, the nuclear transfer embryos were injected into the oviduct through the catheter. Whether the nuclear transfer embryos were successfully injected was observed under a microscope. The abdominal suture was performed with an absorbable suture material, and then, skin suture was performed. To prevent post-surgery infection, a broad range of antibiotic was injected for 3 days.
At 23 days after transferring the nuclear transfer embryos into the surrogate mothers, pregnancies were detected using a SONOACE 9900 (Medison Co. LTD, Seoul, Korea) ultrasound scanner with an attached 7.0 MHZ linear probe. Pregnancy was monitored by ultrasound every 2 weeks after initial confirmation. As a result, it was confirmed that the dogs had become pregnant, and the cloned dogs were produced by inducing natural delivery or performing Cesarean section. […]

[2] = 1 hpf, donor cells treated with roscovitine for 24 hours
[3] = 4 hpa, donor cells treated with roscovitine for 24 hours

## CC[C@@H](CO)Nc1nc(NCc2ccccc2)c2ncn(C(C)C)c2n1 [roscovitine]
[1]; 1 hpf (hour post fusion), donor cells treated with roscovitine for 24 hours
  No. of reconstructed oocytes with IN (intact nucleus): 11
[1]; [2]
  IN (%) for reconstructed oocytes: (32.3 ± 7.0) %
  No. of reconstructed oocytes with NE (nuclear enlargement): 0
  No. of reconstructed oocytes with NS (nuclear swelling): 0
  No. of reconstructed oocytes with PCC (premature chromosome condensation): 23
  PCC (%) for reconstructed oocytes: (67.6 ± 7.0) %
[1]; 4 hpa (hour post activation), donor cells treated with roscovitine for 24 hours
  No. of reconstructed oocytes with IN (intact nucleus): 0
[1]; [3]
  NE (%) for reconstructed oocytes: (23.6 ± 7.5) %
  NS (%) for reconstructed oocytes: (73.6 ± 7.5) %
  No. of reconstructed oocytes with NE (nuclear enlargement): 9
  No. of reconstructed oocytes with NS (nuclear swelling): 28
  No. of reconstructed oocytes with PCC (premature chromosome condensation): 1
  PCC (%) for reconstructed oocytes: (2.6 ± 3.3) %
[1]; 4 hours after activation of the fused embryos
  Nuclear swelling (NS) compared with control group, in words: occurred more in the treated group than in the control group
[1]; after electrical fusion (1 hour elsewhere in the source)
  Rate of premature chromosome condensation (PCC) compared with control group, in words: at a rate significantly higher than that in the control group
Surrogate mothers; 556 embryos transferred into 29 surrogate mothers, donor cells treated with roscovitine
  No. of pregnant mothers: 11
Surrogate mothers; 556 transfer embryos
  Pregnancy rate (based on transfer embryos): 3.95%
Surrogate mothers; somatic cell nuclear transfer after treatment with roscovitine
  Pregnancy rate compared with control, in words: very significantly increased
